# Results from patent US6998143B1, “Ferric fortification system” (Nestec S.A., priority 1999, dated 2006).
# How the values were obtained:
# [1] = system: weanling male Sprague-Dawley rats; assay: Iron bioavailability by hemoglobin repletion in anemic rats (slope-ratio); format: in vivo, rat
# Description: Animals:—The animals used are weanling male Sprague-Dawley rats aged 3 weeks (IFFA-CREDO, L'Arbresle, France).
# This diet is casein based and provides for the nutritional requirements of growing rats except for iron.
# Diet 1:—The control diet supplemented with the complex of example 2 to provide 10 mg/kg iron.
# Diet 2:—The control diet supplemented with the complex of example 2 to provide 20 mg/kg iron.
# 1) Hemoglobin analysis is performed by anaesthetizing the rats with isoflurane and then drawing a sample of 200 μL of blood from the orbital venous plexus. Blood hemoglobin level in the sample is determined by the cyanmethemoglobin method (Hb kit MPR 3, Bochringer Mannheim GmbH, Germany), using an automated instrument (Hemocue, Baumann-Medical SA, Wetzikon, Switzerland). Commercial quality control blood samples (Dia-HT Kontrollblut, Dia MED, Cressier, Switzerland) having a range of hemoglobin levels are measured with all hemoglobin determinations.
# A multiple regression equation relates amounts of iron added to the hemoglobin levels. The equation provides one straight line per diet which intercepts at zero dose.
# Procedure:—Rats are housed individually in polycarbonate cages, fitted with stainless steel grids. The animals are allowed free access to distilled water. […] Fresh diet is supplied daily. Spoiling of diet by rats is reduced by covering the diet with a grid.
# After 24 days, hemoglobin and weight is determined. Fifty rats with hemoglobin levels between […] are randomized into 5 groups of 10 having approximately equal mean hemoglobin and body weight. Each group of animals is fed one of the experimental diets for 14 days. The rats are fed the diets ad libitum beginning with 20 g/day at day 0. The rats have free access to distilled water. Individual food consumption is measured daily. After 14 days, the rats are weighed and hemoglobin is determined.
# [2] = Lipid oxidation induction time in fish oil (Rancimat); format: physicochemical; settings: fish oil in place of chicken fat, 100° C.
# Description: The powder of example 3 is added to chicken fat to provide 40 mg of iron per 1000 g of fat. As a negative control, ferric sulfate is added to chicken fat to provide the same iron loading. Chicken fat without any added iron is used as a positive control.
# The fat samples are heated to 100° C. and the lipid oxidation induction time is determined using a Rancimat. No difference in induction time between the fat fortified with the powder of example 3 and the positive control is determined. The induction time of the negative control is 30 to 40% less.
# The procedure of example 8 is repeated except that fish oil is used in place of chicken fat. The results are similar.
# [3] = diet with 10 mg/kg added Fe for 14 days
# [4] = diet with 20 mg/kg added Fe for 14 days
Compound,"Initial hemoglobin, mean (standard deviation) ([1]; baseline before diet with 10 mg/kg added Fe)","Initial hemoglobin, mean (standard deviation) ([1]; baseline before diet with 20 mg/kg added Fe)","Difference in hemoglobin (final minus initial), mean [1, 3] [g/dL]","Final hemoglobin, mean [1, 3] [g/dL]","Difference in hemoglobin (final minus initial), mean [1, 4] [g/dL]","Final hemoglobin, mean [1, 4] [g/dL]",lipid oxidation induction time results compared with those of example 8 [2]
"O.O.O.O.O.O.O.O=S(=O)([O-])[O-].[Fe+2] [FeSO4.7H2O, ferrous sulfate heptahydrate]",5.12 (0.41) g/dl,5.12 (0.40) g/dl,3.54,8.66,6.41,11.53,
O=S(=O)([O-])[O-].O=S(=O)([O-])[O-].O=S(=O)([O-])[O-].[Fe+3].[Fe+3] [ferric sulfate],,,,,,,similar
